Earlier results on two compounds are cited in PMC3954986 (Chemmedchem, 2013).

In the data set the test system is PLpro. The conditions noted are these: cited from earlier work.

For `Sc1ncnc2nc[nH]c12` [Inhibitor 6MP, 6‐mercaptopurine], the half-inhibitory concentration (IC50) is 5 to 20 µM.

Regarding `Nc1nc2nc[nH]c2c(=S)[nH]1` [Inhibitor 6TG, 6‐thioguanine], the IC50 was 5 to 20 µM.

The term IC50 denotes the concentration at which inhibition is half-maximal.
